This passage reports IC50 results from patent publication US20240174680A1, “CDK2 INHIBITORS AND METHODS OF USING THE SAME” (Cedilla Therapeutics, Inc., priority 2021, published 2024).

For this experiment, the target named is CDK2/Cyclin E1 (Homo sapiens, UniProt P24941). The experiment is described as follows: CDK2/Cyclin E1 Caliper LabChip EZ Reader mobility shift assay. Type of experiment: biochemical. Set-up: purchased Eurofins 14-475. Conditions: read-out: Caliper Assay (CDK2/CCNE1): IC50. How it is done:
Inhibition of CDK2/Cyclin E1 activity in the presence of compounds of the present disclosure was evaluated using a Caliper LabChip® EZ Reader mobility shift assay. In the assay, CDK2/Cyclin E1 (Eurofins, 14-475) catalyzed the phosphorylation of a fluorescently tagged peptide 5-FAM-QSPKKG-CONH2 (PerkinElmer, FL Peptide 18) which induced a difference in capillary electrophoresis mobility. The peptide substrate and product were measured, and the conversion ratio was used to determine the inhibition (as % activity and IC50 values) of CDK2/Cyclin E1. Reactions contained 50 mM HEPES pH 7.5, 10 mM MgCl2, 1 mM EDTA, 2 mM DTT, 0.01% Brij35, 0.5 mg/mL BSA, 0.1% DMSO, 2.5 nM CDK2/Cyclin E1, 100 μM ATP, and 1.5 μM fluorescent peptide substrate.
Dose titrations of inhibitors in 100% DMSO were combined with 3.25 nM CDK2/Cyclin E1 and 130 μM of ATP in reaction buffer. The mixtures were incubated for 30 minutes before the addition of fluorescent peptide substrate to initiate the kinase reaction. The final conditions were 2.5 nM CDK2/Cyclin E1, 100 μM ATP, and 1.5 μM fluorescent peptide. The reactions were stopped after 100 minutes with the addition of EDTA (400 mM final EDTA concentration). The stopped reactions were analyzed on a Caliper LabChip® EZ Reader II. The conversion ratios were normalized to yield % activity, plotted against compound concentration, and fit to a four-parameter equation to determine the IC50 for each compound.

Regarding `C[C@@H](OCC1CCCCC1)[C@H](NC(=O)[C@@H]1CN(C(=O)c2cnn(Cc3ccccc3)c2)CC12CN(C(=O)[C@H]1CC1(C)C)C2)C(=O)N1CCC(c2cc[nH]n2)CC1` [I-443], the IC50 is ≤ 0.01 µM.
For `CNC(=O)[C@@H](NC(=O)[C@H]1CN(C(=O)c2cnn(Cc3ccccc3)c2)CC12CN(C(=O)C1(CCF)CC1)C2)[C@@H](C)OCc1ccccc1` [I-117B] the value was > 10 µM; for `C[C@@H](OCC1CCCCC1)[C@@H](CO)NC(=O)[C@@H]1CN(C(=O)c2cnn(Cc3ccccc3)c2)CC12CN(C(=O)[C@H]1CC1(C)C)C2` [I-135A], 0.01 to 0.1 µM; for `CNC(=O)[C@@H](NC(=O)[C@@H]1CN(C(=O)c2scnc2C2CC2)CC12CN(C(=O)[C@H]1CC1(C)C)C2)[C@@H](C)OCC1CCCCC1` [I-185A], > 10 µM.
Consider `C[C@H](NC(=O)[C@@H]1CN(C(=O)c2cnn(Cc3ccccc3)c2)CC12CN(C(=O)[C@H]1CC1(C)C)C2)c1cccc(F)c1` [I-127A], for which the IC50 is 1 to 10 µM.
For `CNC(=O)[C@@H](NC(=O)[C@@H]1CN(C(=O)c2cnn(Cc3ccccc3)c2)CC12CN(C(=O)[C@H]1CC1(C)C)C2)[C@@H](C)OCC1CCCCC1` [I-123A, (S)-6-(1-benzyl-1H-pyrazole-4-carbonyl)-N-((2S,3R)-3-(cyclohexylmethoxy)-1-(methylamino)-1-oxobutan-2-yl)-2-((S)-2,2-dimethylcyclopropane-1-carbonyl)-2,6-diazaspiro[3.4]octane-8-carboxamide] the value was ≤ 0.01 µM; for `CC1(C)C[C@@H]1C(=O)N1CC2(CN(C(=O)c3cnn(Cc4ccccc4)c3)C[C@H]2C(=O)NCC2CCCCO2)C1` (stereo partly drawn) [I-221], > 10 µM; for `C[C@@H](OCC1CCCCC1)[C@H](NC(=O)C1CN(C(=O)C2CCC(=O)N(C)C2)CC12CN(C(=O)[C@H]1CC1(C)C)C2)C(=O)N1CCCCC1` (stereo partly drawn) [I-242], 1 to 10 µM.
As to `C[C@@H](OCC1CCCCC1)[C@H](NC(=O)[C@@H]1CN(C(=O)c2cnn(Cc3ccccc3)c2)CC12CN(C(=O)[C@H]1CC1(C)C)C2)C(=O)N1CC(CN)C1` [I-239], the IC50 was ≤ 0.01 µM.
As for `CNC(=O)[C@@H](NC(=O)[C@H]1CN(C(=O)c2cnn(Cc3ccccc3)c2)CC12CN(C(=O)C(C)(C)F)C2)[C@@H](C)OCc1ccccc1` [I-90B], the figure is > 10 µM; as for `C[C@@H](OCC1CCCCC1)[C@H](NC(=O)[C@@H]1CN(C(=O)c2cnn(Cc3ccccc3)c2)CC12CN(C(=O)[C@H]1CC1(C)C)C2)C(=O)N1CC2(CNC2)C1` [I-240], ≤ 0.01 µM.
For the compound `CNC(=O)[C@@H](NC(=O)[C@@H]1CN(C(=O)c2cnn(Cc3ccccc3)c2)CC12CN(C(=O)[C@H]1CC1(C)C)C2)[C@@H](C)OCC1CCC(F)(F)CC1` [I-202], the IC50 is ≤ 0.01 µM.
For `CNC(=O)[C@@H](NC(=O)[C@@H]1CN(C(=O)c2sc(Cl)nc2C)CC12CN(C(=O)[C@H]1CC1(C)C)C2)[C@@H](C)OCC1CCCCC1` [I-208A] the value was 0.01 to 0.1 µM.
As for `CC1(C)C[C@@H]1C(=O)N1CC2(CN(C(=O)c3cnn(Cc4ccccc4)c3)C[C@H]2C(=O)NC2CCCN(C(=O)c3ccccc3)C2)C1` (stereo partly drawn) [I-59A], the figure is > 10 µM; as for `CNC(=O)C(NC(=O)[C@@H]1CN(C(=O)c2cncs2)CC12CN(C(=O)[C@H]1CC1(C)C)C2)c1cccc(C2CCCCC2)n1` (stereo partly drawn) [I-362], 0.01 to 0.1 µM; as for `C[C@@H](OCC12CCC(CC1)OC2)[C@H](NC(=O)[C@@H]1CN(C(=O)c2cncs2)CC12CN(C(=O)[C@H]1CC1(C)C)C2)C(=O)N1CCC2(CC1)COC2` [I-336], ≤ 0.01 µM.
For `C[C@@H](OCC12CCC(CC1)OC2)[C@H](NC(=O)[C@@H]1CN(C(=O)c2cnco2)CC12CN(C(=O)[C@H]1CC1(C)C)C2)C(C)(C)O` [I-450] the value was 0.1 to 1 µM; for `CNC(=O)[C@@H](NC(=O)[C@@H]1CN(C(=O)c2cnn(Cc3ccccc3)c2)CC12CN(C(=O)[C@H]1CC1(C)C)C2)C1(OCC2CCCCC2)CC1` [I-396], ≤ 0.01 µM.
As to `CNC(=O)[C@H](CCCC1CCCCC1)NC(=O)[C@@H]1CN(C(=O)c2cnn(Cc3ccccc3)c2)CC12CN(C(=O)[C@H]1CC1(C)C)C2` [I-155A], the IC50 was in the range of 0.1 to 1 µM.
Consider `CC1(C)C[C@@H]1C(=O)N1CC2(CN(C(=O)c3cnn(Cc4ccccc4)c3)C[C@H]2C(=O)N2CCC(Cc3ccccc3)CC2)C1` [I-58A], for which the IC50 was 0.1 to 1 µM.
For `C[C@@H](OCC1CCC(F)(F)CC1)[C@H](NC(=O)[C@@H]1CN(C(=O)c2cncs2)CC12CN(C(=O)[C@H]1CC1(C)C)C2)C(C)(C)O` [I-313] the value was ≤ 0.01 µM.
`CNC(=O)[C@@H](NC(=O)[C@H]1CN(C(=O)c2cnn(Cc3ccccc3)c2)CC12CN(C(=O)C1(CC3CC3)CC1)C2)[C@@H](C)OCc1ccccc1` [I-116B]: the IC50 was > 10 µM.
`CNC(=O)[C@@H](NC(=O)[C@@H]1CN(C(=O)c2ccccn2)CC12CN(C(=O)[C@H]1CC1(C)C)C2)[C@@H](C)OCc1ccccc1` [I-45A]: the IC50 was > 10 µM.
As for `CNC(=O)[C@@H](NC(=O)[C@H]1CN(C(=O)c2cccnc2)CC12CN(C(=O)[C@H]1CC1(C)C)C2)[C@@H](C)OCc1ccccc1` [I-42B], the figure is > 10 µM; as for `CNC(=O)[C@@H](NC(=O)[C@@H]1CN(C(=O)c2cccnc2)CC12CN(C(=O)[C@H]1CC1(C)C)C2)[C@@H](C)OCc1ccccc1` [I-42A], 1 to 10 µM.
For `CN1CC[C@@H](NC(=O)[C@@H]2CN(C(=O)c3cnn(Cc4ccccc4)c3)CC23CN(C(=O)[C@H]2CC2(C)C)C3)C1=O` [I-258] the value was > 10 µM.
Consider `COc1ccc(CNC(=O)[C@@H]2CN(C(=O)c3cnn(Cc4ccccc4)c3)CC23CN(C(=O)[C@H]2CC2(C)C)C3)nn1` [I-371], for which the IC50 is > 10 µM.
Take `CCCCC1CC1C(=O)N1CC2(CN(C(=O)c3cnn(Cc4ccccc4)c3)C[C@H]2C(=O)N[C@H](C(=O)NC)[C@@H](C)OCc2ccccc2)C1` (stereo partly drawn) [I-94A]: the IC50 is > 10 µM.
For the compound `C[C@@H](OCC1CCOCC1)[C@H](NC(=O)[C@@H]1CN(C(=O)c2cn[nH]c2)CC12CN(C(=O)[C@H]1CC1(C)C)C2)C(=O)N1CCC(F)(F)CC1` [I-297], the IC50 is 0.01 to 0.1 µM.
As for `COC(=O)[C@@H](CO)NC(=O)[C@@H]1CN(C(=O)c2cnn(Cc3ccccc3)c2)CC12CN(C(=O)[C@H]1CC1(C)C)C2` [I-187A], the figure is > 10 µM; as for `CNC(=O)[C@@H](NC(=O)[C@H]1CN(Cc2cnc[nH]2)CC12CN(C(=O)[C@H]1CC1(C)C)C2)[C@@H](C)OCc1ccccc1` [I-77B], > 10 µM.
On to `COC[C@H]1CCCN(C(=O)[C@@H](NC(=O)[C@H]2CN(C(=O)c3cncs3)CC23CN(C(=O)[C@H]2CC2(C)C)C3)[C@@H](C)OCC2CCCCC2)C1` [I-196B], for which the IC50 was ≤ 0.01 µM.
For the compound `CNC(=O)[C@@H](NC(=O)[C@@H]1CN(C(=O)c2cnc(CC3CC3)s2)CC12CN(C(=O)[C@H]1CC1(C)C)C2)[C@@H](C)OCC1CCCCC1` [I-177A], the IC50 lay within 0.1 to 1 µM.
For `CNC(=O)[C@@H](NC(=O)[C@@H]1CN(C(=O)c2cnc[nH]2)CC12CN(C(=O)[C@H]1CC1(C)C)C2)[C@@H](C)OCc1ccccc1` [I-44A] the value was > 10 µM.
As to `CNC(=O)[C@@H](NC(=O)[C@@H]1CN(Cc2ccccn2)CC12CN(C(=O)[C@H]1CC1(C)C)C2)[C@@H](C)OCc1ccccc1` [I-40A], the IC50 is > 10 µM.
As for `CC1(C)C[C@@H]1C(=O)N1CC2(CN(C(=O)c3cncs3)C[C@H]2C(=O)NC(c2cccc(C3CCCCC3)n2)C2CCOC2)C1` (stereo partly drawn) [I-493], the figure is 0.01 to 0.1 µM.
